According to patent US20230104936A1, “TRPML MODULATORS” (Casma Therapeutics, Inc., priority 2019, published 2023):

Tested on: TFEB
Experiment: TFEB nuclear translocation assay, HeLa wt cells
Format: cell-based
Settings: 2 hrs compound treatment, Table 1 does not say HeLa wt or TRPML1 KO
Procedure, shortened: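 TFEB translocation into the nucleus of HeLa wt cells is scored by high-content immunofluorescence after 2 hrs of compound treatment at 37° C, reported as AC50.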

## Cc1ccc(S(=O)(=O)N2Cc3cccc(N4CCOCC4)c3C2)cc1 [Compound A-820, 2-(4-methylbenzenesulfonyl)-4-(morpholin-4-yl)-2,3-dihydro-1H-isoindole]
Homo sapiens, HeLa, 2 h
  AC50: ≥ 10000 nM

## CN(C)S(=O)(=O)c1ccc(S(=O)(=O)Nc2cccc(F)c2N2CCC(N)(C(F)(F)F)CC2)cc1 [Compound A-821, N4-{2-[4-amino-4-(trifluoromethyl)piperidin-1-yl]-3-fluorophenyl}-N1,N1-dimethylbenzene-1,4-disulfonamide]
Homo sapiens, HeLa, 2 h
  AC50: ≤ 2000 nM

## COCC1(C)CCN(c2c(NS(=O)(=O)c3ccc(S(=O)(=O)N(C)C)cc3)ccc3ccnn23)CC1 [Compound A-822, N4-{7-[4-(methoxymethyl)-4-methylpiperidin-1-yl]pyrazolo[1,5-a]pyridin-6-yl}-N1,N1-dimethylbenzene-1,4-disulfonamide]
Homo sapiens, HeLa, 2 h
  AC50: 2010 to 8000 nM

## Cc1cc(NS(=O)(=O)c2ccc3c(c2)CCC3)c(Cl)c(N2CCOCC2)c1 [Compound A-823, N-[2-chloro-5-methyl-3-(morpholin-4-yl)phenyl]-2,3-dihydro-1H-indene-5-sulfonamide]
Homo sapiens, HeLa, 2 h
  AC50: ≥ 10000 nM

## C[C@@H]1COC[C@H](C)N1CC1CCN(c2c(F)cccc2NS(=O)(=O)c2ccc(S(=O)(=O)N(C)C)cc2)CC1 [Compound A-824, N4-[2-(4-{[(3R,5S)-3,5-dimethylmorpholin-4-yl]methyl}piperidin-1-yl)-3-fluorophenyl]-N1,N1-dimethylbenzene-1,4-disulfonamide]
Homo sapiens, HeLa, 2 h
  AC50: ≤ 2000 nM

## COC(=O)NC1(C)CCN(c2c(F)cccc2NS(=O)(=O)c2ccc(S(=O)(=O)N(C)C)cc2)CC1 [Compound A-825, methyl N-(1-{2-[4-(dimethylsulfamoyl)benzenesulfonamido]-6-fluorophenyl}-4-methylpiperidin-4-yl)carbamate]
Homo sapiens, HeLa, 2 h
  AC50: ≤ 2000 nM

## C[C@H]1CN(CC2CCN(c3c(F)cccc3NS(=O)(=O)c3ccc(S(=O)(=O)N(C)C)cc3)CC2)C[C@H](C)O1 [Compound A-826, N4-[2-(4-{[(2S,6S)-2,6-dimethylmorpholin-4-yl]methyl}piperidin-1-yl)-3-fluorophenyl]-N1,N1-dimethylbenzene-1,4-disulfonamide]
Homo sapiens, HeLa, 2 h
  AC50: ≤ 2000 nM

## CC(=O)Nc1cccc(NS(=O)(=O)c2ccc(S(=O)(=O)N(C)C)cc2)c1N1CCCCC1 [Compound A-827, N-{3-[4-(dimethylsulfamoyl)benzenesulfonamido]-2-(piperidin-1-yl)phenyl}acetamide]
Homo sapiens, HeLa, 2 h
  AC50: ≥ 10000 nM

## COCC1(C)C2CCC1CN(c1ccccc1NS(=O)(=O)c1ccc(S(=O)(=O)N(C)C)cc1)C2 (centres unmarked) [Compound A-829, N4-{2-[8-(methoxymethyl)-8-methyl-3-azabicyclo[3.2.1]octan-3-yl]phenyl}-N1,N1-dimethylbenzene-1,4-disulfonamide]
Homo sapiens, HeLa, 2 h
  AC50: ≤ 2000 nM

## CN(C)S(=O)(=O)c1ccc(S(=O)(=O)Nc2cccc(F)c2N2CCC(C)(C(F)F)CC2)cc1 [Compound A-830, N4-{2-[4-(difluoromethyl)-4-methylpiperidin-1-yl]-3-fluorophenyl}-N1,N1-dimethylbenzene-1,4-disulfonamide]
Homo sapiens, HeLa, 2 h
  AC50: ≤ 2000 nM

## C[C@@H]1CN(CC2CCN(c3c(NS(=O)(=O)c4ccc(S(=O)(=O)N(C)C)cc4)cccc3C(F)F)CC2)C[C@H](C)O1 [Compound A-831, N4-[3-(difluoromethyl)-2-(4-{[(2R,6S)-2,6-dimethylmorpholin-4-yl]methyl}piperidin-1-yl)phenyl]-N1,N1-dimethylbenzene-1,4-disulfonamide]
Homo sapiens, HeLa, 2 h
  AC50: ≤ 2000 nM

## CC(c1cccc(F)c1N1CCC(CN2C3CCC2COC3)CC1)S(=O)(=O)c1ccc(S(=O)(=O)N(C)C)cc1 (centres unmarked) [Compound A-832, 4-((1-(2-(4-((3-oxa-8-azabicyclo[3.2.1]octan-8-yl)methyl)piperidin-1-yl)-3-fluorophenyl)ethyl)sulfonyl)-N,N-dimethylbenzenesulfonamide]
Homo sapiens, HeLa, 2 h
  AC50: ≤ 2000 nM

## C[C@@H]1COC[C@@H](C)N1CC1CCN(c2c(F)cccc2NS(=O)(=O)c2ccc(S(=N)(=O)N(C)C)cc2)CC1 (stereo partly drawn) [Compound A-835, N-(2-(4-(((3S,5S)-3,5-dimethylmorpholino)methyl)piperidin-1-yl)-3-fluorophenyl)-4-(N,N-dimethylsulfamidimidoyl)benzenesulfonamide]
Homo sapiens, HeLa, 2 h
  AC50: ≤ 2000 nM

## C[C@@H]1COC[C@@H](C)N1CC1CCN(c2c(F)cccc2NS(=O)(=O)c2ccc(S(=N)(=O)N(C)C)cc2)CC1 (stereo partly drawn) [Compound A-836, N-(2-(4-(((3S,5S)-3,5-dimethylmorpholino)methyl)piperidin-1-yl)-3-fluorophenyl)-4-(N,N-dimethylsulfamidimidoyl)benzenesulfonamide]
  AC50: 2010 to 8000 nM

## CC(c1cccc(F)c1N1CCC(CN2C[C@H]3C[C@@H](C2)O3)CC1)S(=O)(=O)c1ccc(S(=O)(=O)N(C)C)cc1 (stereo partly drawn) [Compound A-837, 4-{1-[3-fluoro-2-(4-{[(1R,5S)-6-oxa-3-azabicyclo[3.1.1]heptan-3-yl]methyl}piperidin-1-yl)phenyl]ethanesulfonyl}-N,N-dimethylbenzene-1-sulfonamide]
Homo sapiens, HeLa, 2 h
  AC50: ≤ 2000 nM

## CC(c1cccc(F)c1N1CCC(CN2C3CCC2COC3)CC1)S(=O)(=O)c1ccc(S(=O)(=O)N(C)C)cc1 (centres unmarked) [Compound A-839, 4-(1-{3-fluoro-2-[4-({3-oxa-8-azabicyclo[3.2.1]octan-8-yl}methyl)piperidin-1-yl]phenyl}ethanesulfonyl)-N,N-dimethylbenzene-1-sulfonamide]
  AC50: ≤ 2000 nM

## C[C@H]1COC[C@H](C)N1CC1CCN(c2c(F)cccc2NS(=O)(=O)c2ccc(S(=N)(=O)N(C)C)cc2)CC1 (stereo partly drawn) [Compound A-840, N-(2-(4-(((3S,5S)-3,5-dimethylmorpholino)methyl)piperidin-1-yl)-3-fluorophenyl)-4-(N,N-dimethylsulfamidimidoyl)benzenesulfonamide]
  AC50: ≤ 2000 nM

## C[C@@H]1CN(CC2CCN(c3c(F)cccc3NS(=O)(=O)c3ccc(S(C)(=N)=O)cc3)CC2)C[C@H](C)O1 (stereo partly drawn) [Compound A-841, N-(2-(4-(((2R,6S)-2,6-dimethylmorpholino)methyl)piperidin-1-yl)-3-fluorophenyl)-4-(S-methylsulfonimidoyl)benzenesulfonamide]
Homo sapiens, HeLa, 2 h
  AC50: 2010 to 8000 nM

## CC(c1cccc(C#N)c1N1CCC(CN2C[C@@H](C)O[C@@H](C)C2)CC1)S(=O)(=O)c1ccc(S(=O)(=O)N(C)C)cc1 (some centres unmarked) [Compound A-842, 4-((1-(3-cyano-2-(4-((2,6-dimethylmorpholino)methyl)piperidin-1-yl)phenyl)ethyl)sulfonyl)-N,N-dimethylbenzenesulfonamide]
Homo sapiens, HeLa, 2 h
  AC50: ≤ 2000 nM

## CN(C)S(=N)(=O)c1ccc(S(=O)(=O)Nc2cccc(F)c2N2CCC(CN3CC4CCC(C3)O4)CC2)cc1 (centres unmarked) [Compound A-844, 4-({3-fluoro-2-[4-({8-oxa-3-azabicyclo[3.2.1]octan-3-yl}methyl)piperidin-1-yl]phenyl}sulfamoyl)-N,N-dimethylbenzene-1-sulfonoimidamide]
Homo sapiens, HeLa, 2 h
  AC50: ≤ 2000 nM

## CC(c1ccncc1N1CCC(CN2C[C@@H](C)O[C@@H](C)C2)CC1)S(=O)(=O)c1ccc(S(=O)(=O)N(C)C)cc1 (stereo partly drawn) [Compound A-850, 4-{1-[3-(4-{[(2R,6S)-2,6-dimethylmorpholin-4-yl]methyl}piperidin-1-yl)pyridin-4-yl]ethanesulfonyl}-N,N-dimethylbenzene-1-sulfonamide]
Homo sapiens, HeLa, 2 h
  AC50: 2010 to 8000 nM

## CN(C)S(=N)(=O)c1ccc(S(=O)(=O)Nc2cccc(F)c2N2CCC(CN3CC4CCC(C3)O4)CC2)cc1 (centres unmarked) [Compound A-852, N-(2-(4-((8-oxa-3-azabicyclo[3.2.1]octan-3-yl)methyl)piperidin-1-yl)-3-fluorophenyl)-4-(N,N-dimethylsulfamidimidoyl)benzenesulfonamide]
  AC50: ≤ 2000 nM

## CN(C)S(=N)(=O)c1ccc(S(=O)(=O)Nc2cccc(F)c2N2CCC(CN3CC4CCC(C3)O4)CC2)cc1 (centres unmarked) [Compound A-853, N-(2-(4-((8-oxa-3-azabicyclo[3.2.1]octan-3-yl)methyl)piperidin-1-yl)-3-fluorophenyl)-4-(N,N-dimethylsulfamidimidoyl)benzenesulfonamide]
  AC50: ≤ 2000 nM

## CC(c1cccc(F)c1N1CCC(CN2C3CCC2COC3)CC1)S(=O)(=O)c1ccc(S(=O)(=O)N(C)C)cc1 (centres unmarked) [Compound A-855, 4-((1-(2-(4-((3-oxa-8-azabicyclo[3.2.1]octan-8-yl)methyl)piperidin-1-yl)-3-fluorophenyl)ethyl)sulfonyl)-N,N-dimethylbenzenesulfonamide]
  AC50: 2010 to 8000 nM

## CN(C)S(=O)(=O)c1ccc(S(=O)(=O)Nc2cncc(F)c2N2CCCCC2)cc1 [Compound A-856, N1-(5-fluoro-4-(piperidin-1-yl)pyridin-3-yl)-N^4,N^4-dimethylbenzene-1,4-disulfonamide]
Homo sapiens, HeLa, 2 h
  AC50: ≥ 10000 nM

## CCC(C1CCN(c2c(F)cccc2NS(=O)(=O)c2ccc(S(=N)(=O)N(C)C)cc2)CC1)N1CCOCC1 (centres unmarked) [Compound A-857, 4-[(3-fluoro-2-{4-[1-(morpholin-4-yl)propyl]piperidin-1-yl}phenyl)sulfamoyl]-N,N-dimethylbenzene-1-sulfonoimidamide]
Homo sapiens, HeLa, 2 h
  AC50: ≤ 2000 nM

## CN(C)S(=N)(=O)c1ccc(S(=O)(=O)Nc2cccc(F)c2N2CCC(C3(N4CCOCC4)CC3)CC2)cc1 (centres unmarked) [Compound A-858, 4-[(3-fluoro-2-{4-[1-(morpholin-4-yl)cyclopropyl]piperidin-1-yl}phenyl)sulfamoyl]-N,N-dimethylbenzene-1-sulfonoimidamide]
Homo sapiens, HeLa, 2 h
  AC50: ≤ 2000 nM

## CC(c1cccc(F)c1N1CCC(CN2C[C@@H](C)O[C@H](C)C2)CC1)S(=O)(=O)c1ccc(S(=O)(=O)N(C)C)cc1 (stereo partly drawn) [Compound A-859, 4-{1-[2-(4-{[(2R,6R)-2,6-dimethylmorpholin-4-yl]methyl}piperidin-1-yl)-3-fluorophenyl]ethanesulfonyl}-N,N-dimethylbenzene-1-sulfonamide]
Homo sapiens, HeLa, 2 h
  AC50: ≤ 2000 nM

## CC(c1cccc(F)c1N1CCC(CN2C3COCC2C3)CC1)S(=O)(=O)c1ccc(S(=O)(=O)N(C)C)cc1 (centres unmarked) [Compound A-860, 4-(1-{3-fluoro-2-[4-({3-oxa-6-azabicyclo[3.1.1]heptan-6-yl}methyl)piperidin-1-yl]phenyl}ethanesulfonyl)-N,N-dimethylbenzene-1-sulfonamide]
  AC50: 2010 to 8000 nM
